The values that follow come from patent publication US20230382924A1, “MODULATORS OF CYSTIC FIBROSIS TRANSMEMBRANE CONDUCTANCE REGULATOR” (VERTEX PHARMACEUTICALS INCORPORATED, priority 2020, published 2023).

Assay [1] concerns the target T1, CFTR (Homo sapiens, UniProt P13569). As to the kind of experiment: Membrane Potential Dye, Enteroid Assay A. Type of assay: cell-based. Particulars: Table 9; for EC50: read-out: Ent. A EC50. An outline of the steps:
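Enteroid cells were loaded with methyl oxonol membrane potential dye (plus CaCCinh-A01 and Chicago Sky Blue) for 25 min at room temperature. Chloride transport was started by switching to chloride-free gluconate stimulation solution, with fluorescence read for 15 min. Activity was expressed as % of a triple-combination CFTR modulator control (3 μM, 3 μM, 300 nM acute).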

Assay [2] concerns the target T1, CFTR. Briefly: Membrane Potential Dye, Enteroid Assay B. Format: cell-based. Particulars: Table 9; for EC50: read-out: Ent. B EC50. On the procedure: Base medium (ADF+++) consisted of Advanced DMEM/Ham's F12, 2 mM Glutamax, 10 mM HEPES, […] penicillin/streptomycin.
Bath 1 Buffer consisted of 1 mM MgCl2, 160 mM NaCl, 4.5 mM KCl, 10 mM HEPES, 10 mM Glucose, 2 mM CaCl2).
Chloride Free Buffer consisted of 1 mM Magnesium Gluconate, 2 mM Calcium Gluconate, 4.5 mM Potassium Gluconate, 160 mM Sodium Gluconate, 10 mM HEPES, 10 mM Glucose.
Bath 1 Dye Solution consisted of Bath 1 Buffer, 0.04% Pluronic F127, 20 μM Methyl Oxonol, 30 μM CaCCinh-A01, 30 μM Chicago Sky Blue.
Chloride Free Dye Solution consisted of Chloride Free Buffer, 0.04% Pluronic F127, 20 μM Methyl Oxonol, 30 μM CaCCinh-A01, 30 μM Chicago Sky Blue.
3. Enteroid Cell Harvesting and Seeding
Cells were recovered in cell recovery solution, collected by centrifugation at 650 rpm for 5 min at 4° C., resuspended in TryPLE and incubated for 5 min at 37° C. Cells were then collected by centrifugation at 650 rpm for 5 min at 4° C. and resuspended in IEMM containing 10 μM ROCK inhibitor (RI).
5. Membrane Potential Dye, Enteroid Assay B
Briefly, cells were washed 5 times in Bath 1 Buffer. Bath 1 Dye Solution was added and the cells were incubated for 25 min at room temperature. Following dye incubation, cells were washed 3 times in Chloride Free Dye Solution. Chloride transport was initiated by addition of Chloride Free Dye Stimulation Solution and the fluorescence signal was read for 15 min.

T1 sequence (P13569 with tags, fused parts or gaps DEL508-508): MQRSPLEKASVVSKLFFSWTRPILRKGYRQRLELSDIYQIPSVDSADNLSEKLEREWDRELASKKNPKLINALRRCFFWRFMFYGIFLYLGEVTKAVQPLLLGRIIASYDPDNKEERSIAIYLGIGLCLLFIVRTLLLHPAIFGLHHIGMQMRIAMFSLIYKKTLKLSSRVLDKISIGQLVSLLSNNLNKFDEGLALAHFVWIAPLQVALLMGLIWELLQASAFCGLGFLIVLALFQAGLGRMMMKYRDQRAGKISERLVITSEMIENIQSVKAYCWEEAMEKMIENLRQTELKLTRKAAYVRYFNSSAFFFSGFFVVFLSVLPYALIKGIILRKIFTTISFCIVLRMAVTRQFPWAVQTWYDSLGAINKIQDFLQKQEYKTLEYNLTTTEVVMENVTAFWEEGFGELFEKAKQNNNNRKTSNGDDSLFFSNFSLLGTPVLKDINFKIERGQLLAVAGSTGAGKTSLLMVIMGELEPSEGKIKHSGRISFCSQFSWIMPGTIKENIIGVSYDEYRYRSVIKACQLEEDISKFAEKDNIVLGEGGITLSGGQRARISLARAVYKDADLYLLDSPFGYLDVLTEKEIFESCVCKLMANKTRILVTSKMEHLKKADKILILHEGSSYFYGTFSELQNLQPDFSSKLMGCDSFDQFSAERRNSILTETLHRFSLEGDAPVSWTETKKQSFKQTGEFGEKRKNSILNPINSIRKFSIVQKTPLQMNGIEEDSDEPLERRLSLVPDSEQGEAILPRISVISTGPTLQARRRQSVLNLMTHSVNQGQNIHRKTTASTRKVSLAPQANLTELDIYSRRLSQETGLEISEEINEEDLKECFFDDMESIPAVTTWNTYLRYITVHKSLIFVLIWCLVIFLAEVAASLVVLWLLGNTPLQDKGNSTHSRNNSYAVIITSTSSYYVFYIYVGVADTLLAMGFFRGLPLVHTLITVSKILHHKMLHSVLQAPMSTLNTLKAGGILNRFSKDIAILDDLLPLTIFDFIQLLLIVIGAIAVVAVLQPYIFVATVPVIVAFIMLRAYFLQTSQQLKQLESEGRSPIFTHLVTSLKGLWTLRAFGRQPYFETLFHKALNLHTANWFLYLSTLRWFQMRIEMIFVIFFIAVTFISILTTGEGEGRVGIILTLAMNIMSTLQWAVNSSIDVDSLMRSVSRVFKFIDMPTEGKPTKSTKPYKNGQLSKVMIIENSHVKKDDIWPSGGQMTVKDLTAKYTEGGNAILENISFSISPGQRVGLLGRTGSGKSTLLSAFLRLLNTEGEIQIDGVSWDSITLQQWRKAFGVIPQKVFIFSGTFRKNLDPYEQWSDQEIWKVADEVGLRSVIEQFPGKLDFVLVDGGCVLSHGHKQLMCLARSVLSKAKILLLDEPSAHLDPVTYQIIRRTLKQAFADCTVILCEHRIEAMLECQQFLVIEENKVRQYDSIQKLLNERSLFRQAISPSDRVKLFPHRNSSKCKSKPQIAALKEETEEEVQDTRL

In the case of `Cc1cccc(C)c1-c1cc2nc(n1)NS(=O)(=O)c1cccc(c1)C(=O)N[C@@H]1CN(C3CC4(CCCC4)C3)C[C@H]1O2` [Compound 56, (3R,7R)-19-(2,6-Dimethylphenyl)-5-{spiro[3.4]octan-2-yl}-2-oxa-15λ^6-thia-5,8,16,18,21-pentaazatetracyclo[15.3.1.110,14.03,7]docosa-1(20),10(22),11,13,17(21),18-hexaene-9,15,15-trione], on CFTR [1], the “Ent. A Max Activity” value is listed as “+++ (+++ is >60%)” and the EC50 is < 1 µM. At CFTR [2], the “Ent. B Max Activity” value is “++ (++ is 30-60%)” and the EC50 is < 1 µM.
Take `Cc1cccc(C)c1-c1cc2nc(n1)NS(=O)(=O)c1cccc(c1)C(=O)N[C@@H]1CN(C3CCC4(CC3)CC4)C[C@H]1O2` [Compound 376]: on CFTR [1], the “Ent. A Max Activity” value is given as “+++ (+++ is >60%)” and the EC50 was < 1 µM. In addition, at CFTR [2], the “Ent. B Max Activity” value is recorded as “++ (++ is 30-60%)” and the EC50 is < 1 µM.
For the compound `Cc1cccc(C)c1-c1cc2nc(n1)NS(=O)(=O)c1cccc(c1)C(=O)NC[C@H](c1ccc(CCC(C)(C)C)cc1)O2` (stereo in doubt) [Compound 149], at CFTR [1], the “Ent. A Max Activity” value is “+++ (+++ is >60%)” and the EC50 was < 1 µM. Further, on CFTR [2], the “Ent. B Max Activity” value is “+++ (+++ is >60%)” and the EC50 was < 1 µM.
As for `Cc1cccc(C)c1-c1cc2nc(n1)NS(=O)(=O)c1cccc(c1)C(=O)N[C@@H]1CN(CCC3(C(F)(F)F)CC3)C[C@H]1O2` [Compound 378], on CFTR [1], the “Ent. A Max Activity” value is listed as “+++ (+++ is >60%)” and the EC50 is < 1 µM. Also, at CFTR [2], the “Ent. B Max Activity” value is on record as “+++ (+++ is >60%)” and the EC50 is < 1 µM.
For the compound `Cc1cccc(C)c1-c1cc2nc(n1)NS(=O)(=O)c1cccc(c1)C(=O)NC[C@@H](c1ccc(CCC3(C(F)(F)F)CC3)cc1)O2` [Compound 146], at CFTR [1], the “Ent. A Max Activity” value was “+++ (+++ is >60%)” and the EC50 was < 1 µM. On CFTR [2], the “Ent. B Max Activity” value was “+++ (+++ is >60%)” and the EC50 is < 1 µM.
Turning to `Cc1cccc(C)c1-c1cc2nc(n1)NS(=O)(=O)c1cccc(c1)C(=O)NCc1cc(Cl)ccc1O2` [Compound 295], on CFTR [2], the “Ent. B Max Activity” value is recorded as “+++ (+++ is >60%)” and the EC50 was < 1 µM.
For `C=CCCCCC[C@@H]1COc2cc(-c3ccccc3C=C)nc(n2)NS(=O)(=O)c2cccc(c2)C(=O)N1` [Compound 220], at CFTR [2], the “Ent. B Max Activity” value is “+++ (+++ is >60%)” and the EC50 is < 1 µM.
The matching figures for `Cc1cccc(C)c1-c1cc2nc(n1)NS(=O)(=O)c1cccc(c1)C(=O)N[C@H](C)[C@H](C)O2` [Compound 484]: “++ (++ is 30-60%)” and 3 to 30 µM.
In the same order, the values of `Cc1cccc(/C=C/C(C)C)c1-c1cc2nc(n1)NS(=O)(=O)c1cccc(c1)C(=O)N[C@H](CC(C)C)CO2` [Compound 390] are “+++ (+++ is >60%)” and < 1 µM.
The matching figures for `Cc1cccc(CC2CCCCC2)c1-c1cc2nc(n1)NS(=O)(=O)c1cccc(c1)C(=O)N[C@H](CC(C)C)CO2` [Compound 387]: “+++ (+++ is >60%)” and < 1 µM.
For `Cc1cccc(C)c1-c1cc2nc(n1)NS(=O)(=O)c1cccc(c1)C(=O)NCC(c1ccc(CCCO)cc1)O2` (centres unmarked) [Compound 122], on CFTR [2], the “Ent. B Max Activity” value was “+++ (+++ is >60%)” and the EC50 is 1 to 3 µM.
The matching figures for `O=C1N[C@@H]2CCCCCCCc3ccccc3-c3cc(nc(n3)NS(=O)(=O)c3cccc1c3)OC2` [Compound 217]: “+++ (+++ is >60%)” and < 1 µM.
In the same order, the values of `Cc1cccc(/C=C/C2CC2)c1-c1cc2nc(n1)NS(=O)(=O)c1cccc(c1)C(=O)N[C@H](CC(C)C)CO2` [Compound 53, (11R)-6-[2-[(E)-2-Cyclopropylvinyl]-6-methyl-phenyl]-11-isobutyl-2,2-dioxo-9-oxa-2λ^6-thia-3,5,12,19-tetrazatricyclo[12.3.1.14,8]nonadeca-1(18),4(19),5,7,14,16-hexaen-13-one] are “+++ (+++ is >60%)” and < 1 µM.
Regarding `CC(C)C[C@@H]1COc2cc(C3(C)CC3)nc(n2)NS(=O)(=O)c2cccc(c2)C(=O)N1` [Compound 164], the “Ent. B Max Activity” value at CFTR [2] is given as “+ (+ is <30%)”.
As to `Cc1cccc(CCC2CC2)c1-c1cc2nc(n1)NS(=O)(=O)c1cccc(c1)C(=O)N[C@H](CC(C)C)CO2` [Compound 391], on CFTR [2], the “Ent. B Max Activity” value is given as “+++ (+++ is >60%)” and the half-maximal effective concentration (EC50) is < 1 µM.
In the same order, the values of `Cc1cccc(C)c1-c1cc2nc(n1)NS(=O)(=O)c1cc(n(C)n1)C(=O)NCC(CC(C)C)(CC(C)C)CO2` [Compound 173] are “++ (++ is 30-60%)” and 1 to 3 µM.
In the same order, the values of `O=C1N[C@@H]2CCCCCC/C=C/c3ccccc3-c3cc(nc(n3)NS(=O)(=O)c3cccc1c3)OC2` [Compound 36, (10E,18R)-30-oxa-26λ^6-thia-19,27,29,32-tetraazapentacyclo[16.11.2.13,28.121,25.04,9]tritriaconta-1,3(32),4(9),5,7,10,21(33),22,24,28-decaene-20,26,26-trione] are “+++ (+++ is >60%)” and < 1 µM.
The matching figures for `Cc1cccc(C)c1-c1cc2nc(n1)NS(=O)(=O)c1cccc(c1)C(=O)N[C@H](C)[C@H](C)O2` [Compound 483]: “+ (+ is <30%)” and 1 to 3 µM.
For `Cc1cccc(O)c1-c1cc2nc(n1)NS(=O)(=O)c1cccc(c1)C(=O)N[C@H](CC(C)C)CO2` [Compound 163], on CFTR [2], the “Ent. B Max Activity” value was “++ (++ is 30-60%)” and the EC50 lay within 3 to 30 µM.
As to `Cc1cccc(C)c1-c1cc2nc(n1)NS(=O)(=O)c1cccc(c1)C(=O)NC[C@@H](CC(C)C)CO2` (stereo in doubt) [Compound 367], at CFTR [2], the “Ent. B Max Activity” value is given as “+++ (+++ is >60%)” and the EC50 was < 1 µM.
As to `Cc1cccc(C)c1-c1cc2nc(n1)NS(=O)(=O)c1cccc(c1)C(=O)N[C@H](CCC(C)(C)O)CO2` [Compound 67, (11R)-6-(2,6-Dimethylphenyl)-11-(3-hydroxy-3-methylbutyl)-2,2-dioxo-9-oxa-2λ^6-thia-3,5,12,19-tetrazatricyclo[12.3.1.14,8]nonadeca-1(18),4(19),5,7,14,16-hexaen-13-one], on CFTR [2], the “Ent. B Max Activity” value is reported as “+ (+ is <30%)” and the EC50 was in the range of 3 to 30 µM.
In the same order, the values of `Cc1cccc(C=C2CCCCC2)c1-c1cc2nc(n1)NS(=O)(=O)c1cccc(c1)C(=O)N[C@H](CC(C)C)CO2` [Compound 388] are “++ (++ is 30-60%)” and < 1 µM.
In the same order, the values of `O=C1N[C@@H]2CCCCCCCCc3ccccc3-c3cc(nc(n3)NS(=O)(=O)c3cccc1c3)OC2` [Compound 37, (18R)-30-Oxa-26λ^6-thia-19,27,29,32-tetraazapentacyclo[16.11.2.13,28.121,25.04,9]tritriaconta-1,3(32),4(9),5,7,21(33),22,24,28-nonaene-20,26,26-trione] are “+++ (+++ is >60%)” and < 1 µM.
In the case of `C=CCCCC[C@@H]1COc2cc(-c3ccccc3C=C)nc(n2)NS(=O)(=O)c2cccc(c2)C(=O)N1` [Compound 221], at CFTR [2], the “Ent. B Max Activity” value is “+++ (+++ is >60%)” and the EC50 was < 1 µM.
The matching figures for `Cc1cccc(C)c1-c1cc2nc(n1)NS(=O)(=O)c1cccc(c1)C(=O)N[C@H](CC(C)(C)O)CO2` [Compound 65]: “++ (++ is 30-60%)” and 3 to 30 µM.
In the same order, the values of `Cc1cccc(CCC(C)C)c1-c1cc2nc(n1)NS(=O)(=O)c1cccc(c1)C(=O)N[C@H](CC(C)C)CO2` [Compound 389] are “+++ (+++ is >60%)” and < 1 µM.
In the same order, the values of `O=C1N[C@@H]2CCCCC/C=C/c3ccccc3-c3cc(nc(n3)NS(=O)(=O)c3cccc1c3)OC2` [Compound 218] are “+++ (+++ is >60%)” and < 1 µM.
On to `Cc1cccc(C)c1-c1cc2nc(n1)NS(=O)(=O)c1cccc(c1)C(=O)NC[C@H](c1ccc(CC[Si](C)(C)C)cc1)O2` (stereo in doubt) [Compound 123], for which the EC50 on CFTR [2] is < 1 µM.
Still for that read-out and setting: the result for `Cc1cccc(C)c1-c1cc2nc(n1)NS(=O)(=O)c1cccc(c1)C(=O)NC[C@H](c1ccc(CC[Si](C)(C)C)cc1)O2` (stereo in doubt) [Compound 124] reads < 1 µM.
With `C=CCCCCCC[C@@H]1COc2cc(-c3c(C)cccc3C=C)nc(n2)NS(=O)(=O)c2cccc(c2)C(=O)N1` [Compound 215], on CFTR [2], the “Ent. B Max Activity” value is “++ (++ is 30-60%)” and the EC50 was < 1 µM.
For the compound `Cc1cccc(C)c1-c1cc2nc(n1)NS(=O)(=O)c1cccc(c1)C(=O)NC[C@H](c1ccc(C[Si](C)(C)C)cc1)O2` (stereo in doubt) [Compound 126], the EC50 at CFTR [2] was < 1 µM.

For orientation: EC50 means the concentration needed to bring the measured effect to its halfway point.
